Data set [1] can be described thus: Pharmacokinetics after topical or oral administration in the rat. Type of data set: in vivo, Brown Norway rats. Here is the method: After the administrations, the animals (N=2) were euthanized at different time points (e.g. 4 and 8 hours) and tissues were collected for analysis. List of tissues collected include plasma, retina/retinal pigment epithelium (RPE)/choroid, vitreous humor and aqueous humor.

A short description of another data set: LogD. Conditions: pH 7.4. Type of data set: physicochemical. An excerpt: (§1) In the above table, the physicochemical data, e.g., solubility, were obtained following standard protocols known in the field (see, e.g., Reis et al., Mini Rev Med Chem., 2010, 10(11):1071-6; Avdeef et al., Expert Opin Drug Metab Toxicol., 2005, 1(2):325-42; Bharate et al., Comb Chem High Throughput Screen., 2016, 19(6):461-9; and Jain et al., J Pharm Biomed Anal., 2013, 86:11-35); and the biochemical data, i.e., potency for ETA/ETB, were obtained following the protocols known in the field (see, e.g., Kirkby et al., Br J Pharmacol., 2008, 153(6):1105-19; and Maguire et al., Br J Pharmacol., 2014, 171(24):5555-72).

The subject of another data set is laser-induced glaucoma. The experiment in a line: Laser-induced non-human primate glaucoma model, optic nerve head blood flow (LSFG). Type of data set: in vivo, rhesus macaque, Macaca mulatta. Conditions: IVT 50 μL of 0.02, 0.2 or 2.0 mg/mL, glaucomatous eye, over 6 hours. The method, then: Non-human primates (rhesus macaque, Macaca mulatta) were obtained for this study. One eye of each animal underwent induction of elevation of intraocular pressure (IOP) by repeated laser photocoagulation of the trabecular meshwork. Imaging sessions were repeated to monitor the optic nerve head (ONH) and retinal structural changes. A study was performed to compare an experimental glaucoma eye and a contralateral healthy eye (control) of three non-human primates in global average mean blur rate (MBR) and MBR change from baseline over time as an index of ONH blood flow in a laser-induced glaucoma model. More specifically, a vehicle control, 0.02 mg/mL of Edonentan, 0.2 mg/mL of Edonentan, or 2.0 mg/mL of Edonentan was intravitreally administered (50 μL) to a glaucomatous eye of each of three non-human primates (rhesus macaque, Macaca mulatta). These graphs show the ONH blood flow in the three non-human primates after IVT administration of a vehicle alone (FIG. 7A, FIG. 7E, and FIG. 7I), 0.02 mg/mL of Edonentan (FIG. 7B, FIG. 7F, and FIG. 7J), 0.2 mg/mL of Edonentan (FIG. 7C, FIG. 7G, and FIG. 7K) or 2.0 mg/mL of Edonentan (FIG. 7D, FIG. 7H, and FIG. 7L).

A short description of another data set: Solubility. It is filed as physicochemical.
Description: as §1

The target of a further data set is T1, ETA receptor (Homo sapiens, UniProt P25101).
T1 sequence (P25101 21-427): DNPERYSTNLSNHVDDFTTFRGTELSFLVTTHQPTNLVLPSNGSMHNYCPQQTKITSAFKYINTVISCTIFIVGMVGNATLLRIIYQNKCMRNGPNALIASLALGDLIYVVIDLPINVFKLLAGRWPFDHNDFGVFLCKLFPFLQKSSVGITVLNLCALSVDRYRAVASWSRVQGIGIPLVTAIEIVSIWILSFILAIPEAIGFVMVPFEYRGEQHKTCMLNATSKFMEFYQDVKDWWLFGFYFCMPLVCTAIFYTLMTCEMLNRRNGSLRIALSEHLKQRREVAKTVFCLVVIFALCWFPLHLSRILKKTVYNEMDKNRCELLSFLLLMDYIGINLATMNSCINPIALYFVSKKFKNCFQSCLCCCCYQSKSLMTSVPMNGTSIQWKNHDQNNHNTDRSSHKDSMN
The experiment in a line: Functional potency for ETA receptor. It is filed as biochemical.
Description: as §1

Data set [2] has as its system elevated intraocular pressure (IOP). The experiment in a line: Morrison's rat model of glaucoma (elevated IOP). It is filed as in vivo, Brown Norway rats. Conditions: topical eye drops 100 μg per dose, five days a week, four weeks. An excerpt: Adult male and female retired breeder Brown Norway rats (approximate age groups of 8 to 11 months) were obtained from Envigo (Indianapolis, Ind.). Baseline IOP measurements and pattern electroretinogram (PERG) amplitudes were collected prior to the surgery for elevation of IOP (to ensure that the IOP and PERG amplitudes were in the expected range of values). IOP was elevated in one eye (left eye) of the rats, while the corresponding right eyes served as contralateral controls. The Morrison method to elevate IOP in rats was carried out by injection of 50 μL of hypertonic saline through the episcleral veins to sclerose the trabecular meshwork. IOP was measured twice a week throughout the entire duration of the experiment. […] After detecting an elevation of IOP for two consecutive days, topical administration of eye drops (20 μL (100 μg) per dose of the tested compounds in the IOP elevated eye) was commenced and carried out for five days a week for a total of four weeks. In the 4th week of treatment, PERG analysis was carried out and rats were sacrificed by an overdose of pentobarbital (Fatal-Plus). Aqueous humor was collected from the rat eyes, frozen and shipped for analysis. Retinal flat mounts were prepared, immunostained with the RGC marker, Brn3a antibody and surviving RGCs were counted in two eccentricities (central and peripheral). For this study, the Morrison's model was used to induce ocular hypertension in adult male retired breeder Brown Norway rats as previously described by Morrison et al., (Morrison J C, Moore […], Gold […], Johnson E C. A rat model of chronic pressure-induced optic nerve damage. Exp Eye Res. 1997; 64(1):85-96). The immunostained retinal flat mounts were obtained to measure the retinal ganglion cell (RGC) counts. To obtain immunostained retinal flat mounts, the animals were euthanized after the treatments and then their eyes were enucleated. The eye cups were fixed overnight at 4° C. in 4% paraformaldehyde (PFA) and retinal flat mounts were prepared for collecting images. The retinal ganglion cell (RGC) counting was conducted using the images of immunostained retinal flat mounts. The images were uploaded to ImageJ, a photo editor designed for biology research (Rasband, 1997-2018) and the labeled retinal ganglion cells were counted manually in two eccentricities (central and peripheral). […] Pattern ERG (PERG) was used to assess the RGC function. […] Briefly, PERG signals were acquired from a DTL-plus electrode placed on the lower part of the corneal surface and the PERG waves were analyzed using the EMWIN software (LKC). The difference between the amplitude of the major positive (P1) and negative (N2) waves were calculated to […] amplitude.

A further data set in a line: Stability in solid state. Type of data set: physicochemical. Conditions: 2 h @ l25° C.
Description: as §1

Structures are written as SMILES. Values joined by “and” are separate entries in the source; they are usually repeats but may differ in a detail not shown here. Identical values can stand only once. Like-named read-outs stand apart in the source and are kept apart here. Bounds are passed on as bounds.

Turning to `Cc1onc(NS(=O)(=O)c2ccccc2-c2ccc(-c3ncco3)cc2CN(C)C(=O)CC(C)(C)C)c1C` [Edonentan, N-[[2′-[[(4,5-dimethyl-3-isoxazolyl)amino]sulfonyl]-4-(2-oxazolyl)[1,1′-biphenyl]-2-yl]methyl]-N,3,3-trimethylbutanamide], the “Detection in aqueous humor” value in data set [1] (oral, 17 mg/kg) is reported as “detectable”. In addition, in data set [1] (oral, 1.7 and 17 mg/kg), the “Detection in retina/RPE/choroid and vitreous humor” value is recorded as “detectable”. Also, the “Detection in retina/RPE/choroid, aqueous humor and vitreous humor” value in data set [1] (topical eye drop 100 μg, 4 and 8 hours post-administration) is “detected”. This molecule also returned a log distribution coefficient (logD) in the data set “LogD” of 1.48. The “Optic nerve head (ONH) blood flow, mean blur rate (MBR)” value in the data set with laser-induced glaucoma is recorded as “improvement of ONH blood flow in a dose-dependent manner”. The solubility is 326 µg/mL and 607 µM in “Solubility” (aqueous buffer, pH 7, amorphous form, read-out: Solubility at pH 7); > 8900 µg/mL and > 16800 µM in “Solubility” (ethyl acetate, organic solvent or mixture, read-out: Solubility in Ethyl Acetate); < 0.54 µg/mL and < 1 µM in the data set “Solubility” (pH 2, simulated gastric fluid, read-out: Solubility at pH 2). The “Solubility in Ethyl Acetate (rating)” value in the data set “Solubility” (ethyl acetate, rating in words) was “Good”. Moreover, the IC50 against ETA receptor (functional potency) was 1.54 nM. The “Functional Potency for ETA and ETB Receptors (rating)” value on ETA receptor (rating in words) was “High potency”. For the same molecule, the “RGC function, pattern electroretinogram (PERG) changes” value in data set [2] is given as “maintained RGC function”. The “Retinal ganglion cell (RGC) counts, peripheral retina” value in data set [2] is given as “prevented RGC loss”. Moreover, in “Stability in solid state”, the “Stability in Solid State (rating)” value was “Stable”.
